Experimental data from patent US12043590B2, “Co-crystals comprising levothyroxine and a dicarboxylic acid” (Sandoz AG, priority 2018, dated 2024).

Tests used:
Thermal stability (TGA) = type: physicochemical; details: for Temperature range of desolvation event (TGA): TGA 20 to 235° C., 10 K/min, nitrogen purge, event = loss of EtOH, H2O or lactic acid
Method: Each sample (approximately 4±0.0005 mg using a UM3 ultramicrobalance, Mettler, Greifensee, CH) was weighed into an unsealed platinum sample holder (50 microlitre). The samples were heated from 20 to 235° C. at a rate of 10 K/min. Nitrogen (sample purge rate 20 mL/min and balance purge rate 40 mL/min)) was used as purge gas.

Thermal stability (DSC) = type: physicochemical; details: for Tpeak of desolvation event (first endothermic peak maximum, DSC): DSC 20 to 235° C., dry nitrogen purge, event = loss of EtOH, H2O or lactic acid; for Tpeak of desolvation event (first endothermic peak maximum, DSC) / Onset temperature of decomposition peak (DSC) / Peak maximum temperature of decomposition peak (DSC): heating rate 20 K/min; for Stability against temperature stress compared to levothyroxine sodium pentahydrate (DSC conclusion): DSC analysis; for Onset temperature of decomposition peak (DSC) / Peak maximum temperature of decomposition peak (DSC): co-crystal: second endotherm, concomitant melting and decomposition, sodium pentahydrate: exotherm
Method: Each sample (approximately 4±0.0005 mg using a UM3 ultramicrobalance, Mettler, Greifensee, CH) was weighed into an aluminum pan (25 microlitre) and sealed with a cover, which was perforated by a needle. Dry nitrogen was used as the purge gas (purge rate: 20 mL/min). The samples were heated from 20 to 235° C. at a heating rate of 20 K/min.

[1] = Hamad et al., Pharm Dev Technol 2015; 20(3): 314-319; cited from earlier work
[2] = Chemical stability: exposure to ambient air at 40° C. and 0% RH, followed by 1H-NMR
[3] = TGA 10 K/min, up to about 120° C.
[4] = listed as L-tartaric acid L-lactic acid co-crystal
[5] = listed as L-tartaric acid co-crystal

Compound | Mass loss up to about 120° C. (TGA) (Thermal stability (TGA); [3]) | Temperature range of desolvation event (TGA) (Thermal stability (TGA)) | Temperature range of desolvation event (TGA) (Thermal stability (TGA); [4]) | Tpeak of desolvation event (first endothermic peak maximum, DSC) (Thermal stability (DSC)) | Tpeak of desolvation event (first endothermic peak maximum, DSC) (Thermal stability (DSC); [4]) [°C] | Stability against temperature stress compared to levothyroxine sodium pentahydrate (DSC conclusion) (Thermal stability (DSC)) | Mass loss up to about 120° C. (TGA), in words (Thermal stability (TGA); [3]) | Temperature range of desolvation event (TGA) (Thermal stability (TGA); [5]) | Tpeak of desolvation event (first endothermic peak maximum, DSC) (Thermal stability (DSC); [5]) [°C] | Onset temperature of decomposition peak (DSC) (Thermal stability (DSC)) | Peak maximum temperature of decomposition peak (DSC) (Thermal stability (DSC)) | Chemical degradation on exposure to dry conditions in the presence of molecular oxygen [1] | Chemical stability under the applied stress conditions (1H-NMR) ([2]; ambient air (oxygen about 20.9 volume %), 6 weeks, spectra at start, 3 and 6 weeks) | 1H-NMR spectrum change after 3 weeks ([2]; ambient air, 3 weeks) | 1H-NMR spectrum change after 6 weeks ([2]; ambient air, 6 weeks)
N[C@@H](Cc1cc(I)c(Oc2cc(I)c(O)c(I)c2)c(I)c1)C(=O)O [levothyroxine L-tartaric acid L-lactic acid co-crystal] | about 0.5 weight-% | 150 to 170 °C | ~150-170 °C | about 162 °C | 162 | more stabe against temperature stress | – | – | – | – | – | – | – | – | –
N[C@@H](Cc1cc(I)c(Oc2cc(I)c(O)c(I)c2)c(I)c1)C(=O)O [levothyroxine L-tartaric acid co-crystal] | – | 150 to 170 °C | – | about 165 °C | – | more stable against temperature stress | only a slight mass loss | ~150-170 °C | 165 | about 180 °C | about 197 °C | – | – | – | –
N[C@@H](Cc1cc(I)c(Oc2cc(I)c(O)c(I)c2)c(I)c1)C(=O)[O-].[Na+] [levothyroxine sodium pentahydrate, Levothyroxine sodium pentahydrate, reference compound] | – | ~30-120 °C | – | – | – | – | significant weight loss | – | – | about 202 °C | about 205 °C | significant degradation | chemically unstable | additional peaks become evident | become even more intense
